Converted amounts (≈) assume the structure as drawn. Peptide text beside a SMILES is read from it.
Legend:
red blood cells = assay type: cell-based, pig
Protocol: A series of parameters such as charge number, hydrophobicity, sequence length, and amphipathicity can affect the hemolytic activity of peptides against red blood cells. The minimal hemolytic concentration (MHC) refers to the minimum concentration that causes hemolysis of 10 % of red blood cells, and is often used to evaluate the hemolytic activity of the peptides. Except for SFK3, the percentage of hemolysis at 128 μM was below 5% for all peptides. Hemolysis of the erythrocytes occurred after incubation with Triton X‐100, with complete fragmentation of the erythrocytes and a bright red color of the reaction system (Figure 2B,C and Table S5).
The hemolytic activity of the peptide was calculated by measuring the level of […] released from mammalian red blood cell lysis induced by the peptide, [44]. Fresh porcine blood was collected from the jugular vein and washed with PBS three times, and red blood cells were collected. A red blood cell suspension of 10% (v/v) concentration was prepared in 10 mM PBS (pH = 7.4). After mixing with different concentrations of peptides in equal volume, they were incubated at 37°C for 2 h. Red blood cells treated with PBS and 0.1% Triton X‐100 were used as negative and positive controls, respectively. The assay was repeated three times. After the sample was centrifuged, the supernatant was transferred to a new 96‐well plate, and the optical density at 570 nm was measured using a microplate reader. Hemolysis was calculated as follows: Hemolytic activity(%)=ODtest sample−ODnegative control/ODpositive control−ODnegative control×100%

S. epidermidis 12228 = assay type: cell-based, Staphylococcus epidermidis
Protocol: (§1) MICs were determined to evaluate the antimicrobial activities of the peptides. The bacteria were inoculated into Mueller‐Hinton broth (MHB) medium in advance and placed in a shaker at 37°C until the logarithmic growth phase. The optical density value at OD600 of the bacterial suspension was adjusted to 0.4, and then diluted 1000 times with sterile MHB medium. Subsequently, the peptides with concentrations of 0.25–128 μM were prepared using bovine serum albumin (BSA) solution (0.2% BSA and 0.01% acetic acid) as the solvent on a 96‐well plate. Different concentrations of peptides and bacterial liquids were mixed in equal volumes. MHB medium containing bacteria was used as a positive control. MHB medium without bacteria was used as a negative control. Then, the mixture of peptides and bacteria was cultured in an incubator at 37°C for 18–24 h. The optical density of each well was measured at 492 nm using a microplate reader. The lowest drug concentration corresponding to a culture mixture with an optical density of less than 0.1 is the MIC of the peptide. The assay was repeated three times in duplicate.

E. coli K99 = assay type: cell-based, Escherichia coli; conditions: microbroth dilution, MHB, 37°C, 18–24 h, OD492 < 0.1; repeated three times in duplicate
Protocol: as §1

E. coli K88 = assay type: cell-based, Escherichia coli; conditions: microbroth dilution, MHB, 37°C, 18–24 h, OD492 < 0.1; repeated three times in duplicate
Protocol: as §1

E. coli 25922 = assay type: cell-based, Escherichia coli
Protocol: as §1

S. aureus 1882 = assay type: cell-based, Staphylococcus aureus
Protocol: as §1

S. aureus 6538 = assay type: cell-based, Staphylococcus aureus
Protocol: as §1

P. aeruginosa 27853 = assay type: cell-based, Pseudomonas aeruginosa
Protocol: as §1

P. aeruginosa 15442 = assay type: cell-based, Pseudomonas aeruginosa
Protocol: as §1

S. aureus ATCC 6538 = test: Drug resistance assay, continuous passaging at sub-MIC; assay type: cell-based, Staphylococcus aureus
Protocol: The fold change in the MIC of peptides and […] against S. aureus ATCC 6538 was measured using the continuous passaging method to evaluate the development of drug resistance. The MIC values of the peptide and vancomycin against S. aureus ATCC 6538 were determined according to the above method, and the solutions in the sub‐MIC wells were aspirated and transferred to a fresh MHB medium for the next round of MIC determination. The procedure lasted for 30 days.

SMILES | MHC (red blood cells) | MIC S. epidermidis 12228 (S. epidermidis 12228) [µM] | MIC E. coli K99 (E. coli K99) [µM] | MIC E. coli K88 (E. coli K88) [µM] | MIC E. coli 25922 (E. coli 25922) [µM] | MIC S. aureus 1882 (S. aureus 1882) [µM] | MIC S. aureus 6538 (S. aureus 6538) [µM] | MIC P. aeruginosa 27853 (P. aeruginosa 27853) [µM] | MIC P. aeruginosa 15442 (P. aeruginosa 15442) [µM] | Fold increase of MIC compared with the initial value (S. aureus ATCC 6538; Day 9, sub-MIC passaging) [fold] | MIC relative to the initial value (S. aureus ATCC 6538; end of the trial (30 days), sub-MIC passaging) [times]
CC[C@H](C)[C@H](NC(=O)[C@H](CCCNC(=N)N)NC(=O)[C@H](CO)NC(=O)[C@H](CC(C)C)NC(=O)[C@H](Cc1ccccc1)NC(=O)[C@H](Cc1ccccc1)NC(=O)[C@H](Cc1ccccc1)NC(=O)CNC(=O)CNC(=O)CNC(=O)[C@H](CO)NC(=O)[C@H](C)NC(=O)[C@H](CCCNC(=N)N)NC(=O)[C@@H](NC(=O)[C@H](Cc1c[nH]c2ccccc12)NC(=O)[C@H](Cc1ccc(O)cc1)NC(=O)[C@@H](N)CO)C(C)C)C(=O)N[C@@H](Cc1ccccc1)C(=O)N[C@@H](CCCCN)C(N)=O [SFK] (H-SYWVRASGGGFFFLSRIFK-NH2) | >128 μM | >64 | 64 (≈ 142 µg/mL) | 32 (≈ 71.2 µg/mL) | >64 | 2 (≈ 4.45 µg/mL) | 4 (≈ 8.9 µg/mL) | >64 | >64 |  | 
CC[C@H](C)[C@H](NC(=O)[C@H](CCCNC(=N)N)NC(=O)[C@H](CO)NC(=O)[C@H](CC(C)C)NC(=O)[C@H](Cc1ccccc1)NC(=O)[C@H](Cc1ccccc1)NC(=O)[C@H](Cc1ccccc1)NC(=O)CNC(=O)CNC(=O)CNC(=O)[C@H](CO)NC(=O)[C@H](C)NC(=O)[C@H](CCCNC(=N)N)NC(=O)[C@@H](NC(=O)[C@H](Cc1c[nH]c2ccccc12)NC(=O)[C@H](Cc1ccc(O)cc1)NC(=O)[C@@H](N)CO)C(C)C)C(=O)N[C@@H](Cc1ccccc1)C(=O)N[C@@H](CCCCN)C(=O)N[C@@H](CCCCN)C(=O)N[C@@H](CCCCN)C(N)=O [SFK3] (H-SYWVRASGGGFFFLSRIFKKK-NH2) | >128 μM | >64 | 16 (≈ 39.7 µg/mL) | 16 (≈ 39.7 µg/mL) | >64 | 1 (≈ 2.48 µg/mL) | 2 (≈ 4.96 µg/mL) | >64 | >64 |  | 
CC[C@H](C)[C@H](NC(=O)[C@H](CCCNC(=N)N)NC(=O)[C@H](CO)NC(=O)[C@H](CC(C)C)NC(=O)[C@H](Cc1ccccc1)NC(=O)[C@H](Cc1ccccc1)NC(=O)[C@H](Cc1ccccc1)NC(=O)CNC(=O)CNC(=O)CNC(=O)[C@H](CO)NC(=O)[C@H](C)NC(=O)[C@H](CCCNC(=N)N)NC(=O)[C@@H](NC(=O)[C@H](Cc1c[nH]c2ccccc12)NC(=O)[C@H](Cc1ccc(O)cc1)NC(=O)[C@@H](N)CO)C(C)C)C(=O)N[C@@H](Cc1ccccc1)C(=O)N[C@@H](CCCNC(=N)N)C(=O)N[C@@H](CCCNC(=N)N)C(N)=O [SFR2] (H-SYWVRASGGGFFFLSRIFRR-NH2) | >128 μM | >64 | 64 (≈ 154 µg/mL) | 32 (≈ 77.1 µg/mL) | >64 | 1 (≈ 2.41 µg/mL) | 4 (≈ 9.64 µg/mL) | >64 | >64 |  | 
O=C(O)c1cn(C2CC2)c2cc(N3CCNCC3)c(F)cc2c1=O [ciprofloxacin] |  |  |  |  |  |  |  |  |  | 16 | 2560
CC[C@H](C)[C@H](NC(=O)[C@H](CCCNC(=N)N)NC(=O)[C@H](CO)NC(=O)[C@H](CC(C)C)NC(=O)[C@H](Cc1ccccc1)NC(=O)[C@H](Cc1ccccc1)NC(=O)[C@H](Cc1ccccc1)NC(=O)CNC(=O)CNC(=O)CNC(=O)[C@H](CO)NC(=O)[C@H](C)NC(=O)[C@H](CCCNC(=N)N)NC(=O)[C@@H](NC(=O)[C@H](Cc1c[nH]c2ccccc12)NC(=O)[C@H](Cc1ccc(O)cc1)NC(=O)[C@@H](N)CO)C(C)C)C(=O)N[C@@H](Cc1ccccc1)C(=O)N[C@@H](CCCNC(=N)N)C(=O)N[C@@H](CCCNC(=N)N)C(=O)N[C@@H](CCCNC(=N)N)C(N)=O [SFR3] (H-SYWVRASGGGFFFLSRIFRRR-NH2) | >128 μM | >64 | >64 | 32 (≈ 82.1 µg/mL) | >64 | 4 (≈ 10.3 µg/mL) | 16 (≈ 41 µg/mL) | >64 | >64 |  | 
CC[C@H](C)[C@H](NC(=O)[C@H](CCCNC(=N)N)NC(=O)[C@H](CO)NC(=O)[C@H](CC(C)C)NC(=O)[C@H](Cc1ccccc1)NC(=O)[C@H](Cc1ccccc1)NC(=O)[C@H](Cc1ccccc1)NC(=O)CNC(=O)CNC(=O)CNC(=O)[C@H](CO)NC(=O)[C@H](C)NC(=O)[C@H](CCCNC(=N)N)NC(=O)[C@@H](NC(=O)[C@H](Cc1c[nH]c2ccccc12)NC(=O)[C@H](Cc1ccc(O)cc1)NC(=O)[C@@H](N)CO)C(C)C)C(=O)N[C@@H](Cc1ccccc1)C(=O)N[C@@H](CCCNC(=N)N)C(N)=O [SFR] (H-SYWVRASGGGFFFLSRIFR-NH2) | >128 μM | >64 | 32 (≈ 72.1 µg/mL) | 32 (≈ 72.1 µg/mL) | >64 | 2 (≈ 4.51 µg/mL) | 2 (≈ 4.51 µg/mL) | >64 | >64 |  | 
CC[C@H](C)[C@H](NC(=O)[C@H](CCCNC(=N)N)NC(=O)[C@H](CO)NC(=O)[C@H](CC(C)C)NC(=O)[C@H](Cc1ccccc1)NC(=O)[C@H](Cc1ccccc1)NC(=O)[C@H](Cc1ccccc1)NC(=O)CNC(=O)CNC(=O)CNC(=O)[C@H](CO)NC(=O)[C@H](C)NC(=O)[C@H](CCCNC(=N)N)NC(=O)[C@@H](NC(=O)[C@H](Cc1c[nH]c2ccccc12)NC(=O)[C@H](Cc1ccc(O)cc1)NC(=O)[C@@H](N)CO)C(C)C)C(=O)N[C@@H](Cc1ccccc1)C(N)=O [SF] (H-SYWVRASGGGFFFLSRIF-NH2) | >128 μM | >64 | >64 | >64 | >64 | 2 (≈ 4.19 µg/mL) | 16 (≈ 33.5 µg/mL) | >64 | >64 |  | 

From paper PMC11211671, “Phage‐displayed heptapeptide sequence conjugation significantly improves the specific targeting ability of antimicrobial peptides against Staphylococcus aureus” (mLife, 2024)
